Measurements taken from patent publication US20210070747A1, “2(1H)-QUINOLINONE DERIVATIVE” (priority 2017, published 2021).
pIC50: −log10 of the molar value. Values after ≈ are worked out from the molar mass of the structure shown. Where a name gives a salt, the structure may show the parent alone. Read-outs that look alike come from different tables or passages of the source.

How the values were obtained:
E. Coli ATCC 25922 = experiment: Test for evaluating antibacterial activity (E. coli), broth microdilution MIC; format: cell-based; conditions: Escherichia coli, ATCC25922; 35° C., 18 hours, cation-adjusted Mueller-Hinton medium
Summary of the method: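 Broth microdilution per modified CLSI method in cation-adjusted Mueller-Hinton medium. Inoculum from overnight heart infusion agar growth, McFarland 0.5 suspension diluted 10-fold; incubation 35° C for 18 hours. MIC taken as lowest drug concentration with no visible growth.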

[1] = test system: N. gonorrhoeae ATCC 49226; experiment: Test for evaluating antibacterial activity (N. gonorrhoeae), broth microdilution MIC; format: cell-based; conditions: Neisseria gonorrhoeae, ATCC49226; 35° C., 24 hours, gonococcal broth
Method: Minimum inhibitory concentration (MIC) was measured using the broth microdilution method described below in accordance with a modification of the method of Geers et al. (Antimicrob. Agents. Chemother. (1989), 33, 233-234).
After sterilization, BD. Difco supplement C was added to give a final concentration of 1%, whereby a gonococcal broth was prepared.
Bacterial cells under test were cultured overnight on a chocolate II agar medium, scraped off and suspended at a concentration equivalent to McFarland 0.5 turbidity; the suspension thus obtained was diluted 5 folds to give a liquid inoculum. The inoculum (0.005 mL) was inoculated on a gonococcal broth containing the analyte compound and cultured at 35° C. for 24 hours. A minimum drug concentration at which no bacterial growth was macroscopically visible was designated MIC.

E. coli DNA gyrase [2] = target: T1, E. coli DNA gyrase (Escherichia coli, UniProt P0AES6); experiment: Test for evaluating the activity of inhibiting E. coli DNA gyrase enzyme (Method 1, supercoiling, Inspiralis enzyme); format: biochemical
T1 construct: made in house; host or cells: E. coli BL21 (DE3)
Summary of the method: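 Relaxed pBR322 (1 ng/μL) supercoiled by E. coli gyrase (0.006 U/μL final) with 0.5 mmol/L ATP in 20 mmol/L Tris-HCl pH 8.0, 8 mmol/L MgCl2, 35 mmol/L ammonium acetate, 60 min, room temperature. Stopped with H19; supercoiled/relaxed ratio read at 485/535 nm; inhibition curve across compound concentrations.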

E. coli DNA gyrase [3] = target: T1, E. coli DNA gyrase; experiment: Test for evaluating the activity of inhibiting E. coli DNA gyrase enzyme (Method 2, supercoiling, recombinant gyrA/gyrB complex); format: biochemical
Summary of the method: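 Recombinant E. coli gyrA/gyrB complex (His-tagged, BL21(DE3)-expressed, Ni-NTA purified; 0.135 nmol/mL final) supercoiled relaxed pBR322 (1 ng/μL) with 0.5 mmol/L ATP in pH 8.0 Tris buffer, 60 min at room temperature. H19 stopped the reaction; supercoiled/relaxed ratio read at 485/535 nm, inhibition curves built from varying compound concentrations.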

E. coli topoisomerase IV = target: T2, E. coli topoisomerase IV (Escherichia coli, UniProt P20083); experiment: Test for evaluating the activity of inhibiting E. coli topoisomerase IV enzyme (relaxation); format: biochemical
T2 construct: purchased Inspiralis
T2 sequence (P20083 whole entry): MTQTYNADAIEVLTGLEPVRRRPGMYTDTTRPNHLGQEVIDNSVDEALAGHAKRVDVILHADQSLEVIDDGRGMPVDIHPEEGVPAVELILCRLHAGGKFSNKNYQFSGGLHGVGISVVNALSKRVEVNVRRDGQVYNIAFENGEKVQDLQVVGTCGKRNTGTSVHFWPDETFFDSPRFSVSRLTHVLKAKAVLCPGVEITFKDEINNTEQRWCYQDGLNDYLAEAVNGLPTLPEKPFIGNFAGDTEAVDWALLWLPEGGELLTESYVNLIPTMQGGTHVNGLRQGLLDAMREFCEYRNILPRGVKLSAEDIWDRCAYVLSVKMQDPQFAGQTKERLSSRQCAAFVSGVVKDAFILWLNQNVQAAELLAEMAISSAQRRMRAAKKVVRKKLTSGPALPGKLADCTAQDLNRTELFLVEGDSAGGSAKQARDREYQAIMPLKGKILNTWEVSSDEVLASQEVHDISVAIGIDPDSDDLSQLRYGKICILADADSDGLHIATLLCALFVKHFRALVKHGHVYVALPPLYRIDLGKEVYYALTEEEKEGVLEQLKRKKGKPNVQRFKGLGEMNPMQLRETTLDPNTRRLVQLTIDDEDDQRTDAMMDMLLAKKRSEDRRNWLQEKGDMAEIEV
T2 sequence (P0AFI2 whole entry, further chain): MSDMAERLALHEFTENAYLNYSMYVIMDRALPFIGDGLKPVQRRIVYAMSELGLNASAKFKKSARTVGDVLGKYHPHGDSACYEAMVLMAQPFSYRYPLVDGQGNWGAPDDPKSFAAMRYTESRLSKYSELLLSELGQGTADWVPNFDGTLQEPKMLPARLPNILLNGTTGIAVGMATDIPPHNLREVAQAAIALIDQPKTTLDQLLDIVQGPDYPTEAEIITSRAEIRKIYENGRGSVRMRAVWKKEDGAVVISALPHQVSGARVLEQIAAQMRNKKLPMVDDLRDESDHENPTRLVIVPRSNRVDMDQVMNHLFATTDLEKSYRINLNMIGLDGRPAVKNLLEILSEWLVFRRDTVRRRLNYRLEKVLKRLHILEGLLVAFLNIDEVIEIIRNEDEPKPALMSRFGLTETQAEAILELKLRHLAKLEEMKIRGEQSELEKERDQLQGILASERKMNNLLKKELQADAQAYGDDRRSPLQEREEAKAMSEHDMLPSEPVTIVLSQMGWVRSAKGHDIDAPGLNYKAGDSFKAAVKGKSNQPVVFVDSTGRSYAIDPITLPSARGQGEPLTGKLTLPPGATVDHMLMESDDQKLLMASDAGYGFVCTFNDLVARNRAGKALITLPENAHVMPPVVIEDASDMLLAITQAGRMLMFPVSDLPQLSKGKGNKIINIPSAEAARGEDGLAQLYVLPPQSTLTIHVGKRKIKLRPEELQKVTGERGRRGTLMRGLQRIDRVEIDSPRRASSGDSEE
Method: The enzymatic activity of E. coli topoisomerase IV was measured by a method comprising reacting topoisomerase IV and its substrate, supercoiled pBR322 (Inspiralis), in the presence of ATP and detecting the post-reaction supercoiled pBR322/relaxed pBR322 ratio with H19.
Specifically, to 2 ng/μL of supercoiled pBR322, E. coli topoisomerase IV enzyme (Inspiralis) was added at a final concentration of 0.0075 U/μL and the mixture was incubated for 30 minutes at room temperature. This reaction was carried out in 20 mmol/L tris-HCl buffered solution (pH 8.0) comprising 0.5 mmol/L ATP, 0.005% bridge 35, 35 mmol/L ammonium acetate, 8 mmol/L magnesium chloride, 4.6% glycerol, and 1 mmol/L dithiothreitol. To the reaction mixture, H19 was added to bring the reaction to an end; thereafter, the supercoiled pBR322/relaxed pBR322 ratio was detected at excitation wavelength/emission wavelength=485 nm/535 nm. An inhibition curve was obtained by allowing the analyte compound to be present at varying concentrations during the reaction described above.

[4] = Method 1, read-out: E. Coli Gyrase supercoiling IC50
[5] = Method 2, read-out: E. Coli Gyrase supercoiling IC50
[6] = read-out: E. Coli TopoIV relaxation IC50

Row | SMILES | MIC (E. Coli ATCC 25922) | MIC [1] | pIC50 (E. coli DNA gyrase [2]; [4]) | pIC50 (E. coli DNA gyrase [3]; [5]) | pIC50 (E. coli topoisomerase IV; [6]) | pIC50 (E. coli DNA gyrase [3]) | pIC50 (E. coli topoisomerase IV) | pIC50 (E. coli DNA gyrase [2])
1 | CNc1cccc2cc(C(=O)Nc3cnc(N4CCN(C)CC4)nc3)c(=O)[nH]c12 [Example 28, 8-(methylamino)-N-[2-(4 methylpiperazine-1-yl)pyrimidine-5-yl]-2-oxo-1,2-dihydroquinoline-3-carboxamide] | > 16 µg/mL | > 4 µg/mL | 7.49 | – | – | – | – | –
2 | CNc1cccc2cc(C(=O)NCc3ccc(C(=O)O)cc3C)c(=O)[nH]c12 [Example 8, 3-methyl-4-({[8-(methylamino)-2-oxo-1,2-dihydroquinoline-3-carbonyl]amino}methyl)benzoic acid] | > 64 µg/mL | 4 µg/mL (≈ 10.9 µM) | 7.52 | – | – | – | – | –
3 | CNc1cccc2cc(C(=O)Nc3cccc(=O)[nH]3)c(=O)[nH]c12 [Example 16, 8-(methylamino)-2-oxo-N-(6-oxo-1,6-dihydro-pyridine-2-yl)-1,2-dihydroquinoline-3-carboxamide] | > 64 µg/mL | > 4 µg/mL | 6.88 | – | – | – | – | –
4 | CNc1cccc2cc(C(=O)Nc3ccc(-c4noc(=O)[nH]4)cc3)c(=O)[nH]c12 [Example 18, 8-(methylamino)-2-oxo-N-[4-(5-oxo-4,5-dihydro-1,2,4-oxadiazole-3-yl)phenyl]-1,2-dihydroquinoline-3-carboxamide] | > 0.5 µg/mL | 0.25 µg/mL (≈ 0.662 µM) | 7.81 | – | – | – | – | –
5 | CNc1cc(F)cc2cc(C(=O)Nc3ccccc3CN(CCO)C3CCCCC3)c(=O)[nH]c12 [Example 123, N-(2-{[cyclohexyl(2-hydroxyethyl)amino]methyl}phenyl)-6-fluoro-8-(methylamino)-2-oxo-1,2-dihydroquinoline-3-carboxamide] | 8 µg/mL (≈ 17.1 µM) | – | – | 8.44 | 6.21 | – | – | –
6 | CNc1cc(F)cc2cc(C(=O)Nc3cncnc3)c(=O)[nH]c12 [Example 50, 6-fluoro-8-(methylamino)-2-oxo-N-(pyrimidine-5-yl)-1,2-dihydroquinoline-3-carboxamide] | > 8 µg/mL | 0.06 µg/mL (≈ 0.192 µM) | 8.73 | – | – | – | – | –
7 | CNc1cc(F)cc2c(NCC3CCNC3)c(C(=O)Nc3ccc(C(=O)O)cc3)c(=O)[nH]c12.O=CO (centres unmarked) [Example 133, 4-{[6-fluoro-8-(methylamino)-2-oxo-4-{[(pyrrolidine-3-yl)methyl]amino}-1,2-dihydroqunoline-3-carbonyl]amino}benzoic acid-formate] | > 16 µg/mL | – | – | – | – | 9.09 | 6.80 | –
8 | CNc1cc(F)cc2cc(C(=O)OCc3ccncc3N)c(=O)[nH]c12 [Example 77, (3-aminopyridine-4-yl)methyl 6-fluoro-8-(methylamino)-2-oxo-1,2-dihydroquinoline-3-carboxylate] | > 16 µg/mL | 1 µg/mL (≈ 2.92 µM) | 7.61 | – | – | – | – | –
9 | CNc1nccc2cc(C(=O)Nc3ccc(C(=O)O)cc3)c(=O)[nH]c12 [Example 17, 4-[[8-(Methylamino)-2-oxo-1,2-dihydro-1,7-naphthyridine-3-carbonyl]amino]benzoic Acid] | > 64 µg/mL | > 1 µg/mL | 6.53 | – | – | – | – | –
10 | CNc1cccc2cc(C(=O)NCCc3cccc(C(=O)O)c3)c(=O)[nH]c12 [Example 5, 3-(2-{[8-(methylamino)-2-oxo-1,2-dihydroquinoline-3-carbonyl]amino}ethyl)benzoic acid] | > 64 µg/mL | – | – | 8.01 | 4.77 | – | – | –
11 | CNc1cccc2cc(C(=O)OCc3ccncc3N)c(=O)[nH]c12 [Example 19, (3-aminopyridine-4-yl)methyl 8-(methyl-amino)-2-oxo-1,2-dihydroquinoline-3-carboxylate] | > 16 µg/mL | > 4 µg/mL | 6.37 | – | – | – | – | –
12 | CNc1cccc2cc(C(=O)NCCc3cn4cccnc4n3)c(=O)[nH]c12 [Example 29, N-[2-(imidazo [1,2-a]pyrimidine-2-yl)ethyl]-8-(methylamino)-2-oxo-1,2-dihydroquinoline-3-carboxamide] | > 64 µg/mL | > 4 µg/mL | 7.55 | – | – | – | – | –
13 | CNc1cccc2cc(C(=O)Nc3ccccc3CN(C)C3CCCCC3)c(=O)[nH]c12 [Example 7, N-(2-[[Cyclohexyl(methyl)amino]methyl]phenyl)-8-(methylamino)-2-oxo-1,2-dihydroquinoline-3-carboxamide] | > 32 µg/mL | > 4 µg/mL | 8.47 | – | – | – | – | –
14 | CN=S(C)(=O)c1ccc(NC(=O)c2cc3cccc(NC)c3[nH]c2=O)cc1 (centres unmarked) [Example 22, N-[4-(N,S-dimethane-sulfonimidoyl)phenyl]-8-(methylamino)-2-oxo-1,2-dihydroquinoline-3-carboxamide] | > 8 µg/mL | > 4 µg/mL | 6.76 | – | – | – | – | –
15 | CNc1cc(F)cc2cc(C(=O)Nc3ccc(C(=O)NCCN4CCOCC4)cc3)c(=O)[nH]c12 [Example 40, 6-Fluoro-8-(methylamino)-N-(4-[[2-(morpholin-4-yl)ethyl]carbamoyl]phenyl)-2-oxo-1,2-dihydroquinoline-3-carboxamide] | 4 µg/mL (≈ 8.56 µM) | – | – | 8.14 | 5.88 | – | – | –
16 | CNc1cc(F)cc2cc(C(=O)Nc3ccccc3)c(=O)[nH]c12 [Example 76, 6-fluoro-8-(methylamino)-2-oxo-N-phenyl-1,2-dihydroquinoline-3-carboxamide] | > 32 µg/mL | 0.25 µg/mL (≈ 0.803 µM) | 6.60 | – | – | – | – | –
17 | CNc1cc(F)cc2cc(C(=O)Nc3ccc(C(=O)O)c(O)c3)c(=O)[nH]c12 [Example 58, 4-{[6-fluoro-8-(methylamino)-2-oxo-1,2-dihydroquinoline-3-carbonyl]amino}-2-hydroxybenzoic acid] | > 32 µg/mL | 0.12 µg/mL (≈ 0.323 µM) | 8.69 | – | – | – | – | –
18 | CNc1cc(F)cc2cc(C(=O)Nc3ccc(C(=O)O)c(OCCN4CCN(C)CC4)c3)c(=O)[nH]c12 [Example 54, 4-{[6-fluoro-8-(methylamino)-2-oxo-1,2-dihydroquinoline-3-carbonyl]amino}-2-[2-(4-methylpiperazine-1-yl)ethoxy] benzoic acid-hydrochloride] | > 16 µg/mL | 1 µg/mL | 8.72 | – | – | – | – | –
19 | CNc1cc(F)cc2cc(C(=O)Nc3ccc(C(=O)O)c(OCCCN)c3)c(=O)[nH]c12.O=CO [Example 62, 2-(3-Aminopropoxy)-4-[[6-fluoro-8-(methylamino)-2-oxo-1,2-dihydroquinoline-3-carbonyl]amino]benzoic acid-formate] | > 16 µg/mL | 2 µg/mL | – | – | – | – | – | 9.04
20 | CNc1cc(F)cc2cc(C(=O)Nc3cccnc3)c(=O)[nH]c12 [Example 72, 6-fluoro-8-(methylamino)-2-oxo-N-(pyridine-3-yl)-1,2-dihydroquinoline-3-carboxamide] | > 4 µg/mL | 0.12 µg/mL (≈ 0.384 µM) | 8.10 | – | – | – | – | –
21 | CNc1cc(F)cc2cc(C(=O)NCCc3cccc(C(=O)O)c3)c(=O)[nH]c12 [Example 66, 3-(2-{[6-fluoro-8-(methylamino)-2-oxo-1,2-dihydroquinoline-3-carbonyl]amino}ethyl) benzoic acid] | > 32 µg/mL | 0.25 µg/mL (≈ 0.652 µM) | 9.02 | – | – | – | – | –
22 | CNc1cccc2cc(C(=O)NC3CCN(c4ncc(C(=O)O)s4)CC3)c(=O)[nH]c12 [Example 3, 2-(4-{[8-(methylamino)-2-oxo-1,2-dihydroquinoline-3-carbonyl]amino}piperidine-1-yl)-1,3-thiazole-5-carboxylic acid] | > 64 µg/mL | > 4 µg/mL | 6.91 | – | – | – | – | –
23 | CNc1cc(F)cc2cc(C(=O)N(C)c3ccc(C(=O)O)cc3)c(=O)[nH]c12 [Example 56, 4-{[6-fluoro-8-(methylamino)-2-oxo-1,2-dihydroquinoline-3-carbonyl] (melhyl)amino} benzoic acid] | > 64 µg/mL | 0.12 µg/mL (≈ 0.325 µM) | – | – | – | – | – | 7.74
24 | CNc1cccc2cc(C(=O)NCc3noc(=O)[nH]3)c(=O)[nH]c12 [Example 14, 8-(methylamino)-2-oxo-N-[(5-oxo-4,5-dihydro-1,2,4-oxadiazole-3-yl)methyl]-1,2-dihydroquinoline-3-carboxamide] | – | > 4 µg/mL | 4.45 | – | – | – | – | –
